Assay results taken from PubChem BioAssay (NCI).
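Dose response: 5 concentrations. Exposure: 48 h. Format: 96-well plates. Endpoint: linear interpolation; highest concentration if not reached. The concentration for 50% growth inhibition is given as GI50. TGI: concentration producing complete growth inhibition.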

What was measured:
Assay in all cases: growth of human tumour cells (NCI), 48 h
MDA-MB-435 = test system: MDA-MB-435
K-562 leukemia = test system: K-562 leukemia
RPMI-8226 leukemia = test system: RPMI-8226 leukemia
OVCAR-4 ovarian = test system: OVCAR-4 ovarian
HCT-116 colon = test system: HCT-116 colon
NCI-H226 lung = test system: NCI-H226 lung
COLO 205 colon = test system: COLO 205 colon
A549 NSCLC = test system: A549 NSCLC
UO-31 renal = test system: UO-31 renal
CAKI-1 renal = test system: CAKI-1 renal
OVCAR-5 ovarian = test system: OVCAR-5 ovarian
U251 CNS = test system: U251 CNS
SF-295 CNS = test system: SF-295 CNS
HOP-92 NSCLC = test system: HOP-92 NSCLC
LOX IMVI melanoma = test system: LOX IMVI melanoma
MALME-3M melanoma = test system: MALME-3M melanoma
DU-145 prostate = test system: DU-145 prostate
ACHN renal = test system: ACHN renal
CCRF-CEM leukemia = test system: CCRF-CEM leukemia
MCF7 breast = test system: MCF7 breast
MDA-MB-231 breast = test system: MDA-MB-231 breast
SW-620 colon = test system: SW-620 colon
OVCAR-3 ovarian = test system: OVCAR-3 ovarian
HL-60(TB) leukemia = test system: HL-60(TB) leukemia
NCI-H460 lung = test system: NCI-H460 lung
IGROV1 ovarian = test system: IGROV1 ovarian
BT-549 breast = test system: BT-549 breast
SK-MEL-5 melanoma = test system: SK-MEL-5 melanoma
786-0 renal = test system: 786-0 renal
HT29 colon = test system: HT29 colon
SF-268 CNS = test system: SF-268 CNS
HCT-15 colon = test system: HCT-15 colon
SR leukemia = test system: SR leukemia
NCI/ADR-RES ovarian = test system: NCI/ADR-RES ovarian
UACC-257 melanoma = test system: UACC-257 melanoma
HS 578T breast = test system: HS 578T breast
KM12 colon = test system: KM12 colon
A498 renal = test system: A498 renal
SNB-75 CNS = test system: SNB-75 CNS
SK-MEL-28 melanoma = test system: SK-MEL-28 melanoma
EKVX NSCLC = test system: EKVX NSCLC
HCC-2998 colon = test system: HCC-2998 colon
NCI-H522 lung = test system: NCI-H522 lung
PC-3 prostate = test system: PC-3 prostate
OVCAR-8 ovarian = test system: OVCAR-8 ovarian
NCI-H23 lung = test system: NCI-H23 lung
HOP-62 NSCLC = test system: HOP-62 NSCLC
SF-539 CNS = test system: SF-539 CNS
SNB-19 CNS = test system: SNB-19 CNS
SN12C renal = test system: SN12C renal
MOLT-4 leukemia = test system: MOLT-4 leukemia
RXF 393 renal = test system: RXF 393 renal
TK-10 renal = test system: TK-10 renal
M14 melanoma = test system: M14 melanoma
SK-OV-3 ovarian = test system: SK-OV-3 ovarian
T-47D breast = test system: T-47D breast

COC1(OC)CC(CO)(CNc2nc(N)nc(Cl)c2C=O)C1
TGI (MDA-MB-435): 85.9 µM | TGI (K-562 leukemia): 32.1 µM | TGI (RPMI-8226 leukemia): > 100 µM | TGI (OVCAR-4 ovarian): 90.4 µM | TGI (HCT-116 colon): > 100 µM | TGI (NCI-H226 lung): > 100 µM | TGI (COLO 205 colon): > 100 µM | TGI (A549 NSCLC): > 100 µM | TGI (UO-31 renal): > 100 µM | TGI (CAKI-1 renal): > 100 µM | TGI (OVCAR-5 ovarian): > 100 µM | TGI (U251 CNS): > 100 µM | TGI (SF-295 CNS): > 100 µM | TGI (HOP-92 NSCLC): 36.2 µM | TGI (LOX IMVI melanoma): 35.2 µM | TGI (MALME-3M melanoma): > 100 µM | TGI (DU-145 prostate): > 100 µM | TGI (ACHN renal): 13 µM | TGI (CCRF-CEM leukemia): > 100 µM | TGI (MCF7 breast): > 100 µM | TGI (MDA-MB-231 breast): 43.9 µM | TGI (SW-620 colon): > 100 µM | TGI (OVCAR-3 ovarian): > 100 µM | TGI (HL-60(TB) leukemia): 35.8 µM | TGI (NCI-H460 lung): > 100 µM | TGI (IGROV1 ovarian): 48.3 µM | TGI (BT-549 breast): > 100 µM | TGI (SK-MEL-5 melanoma): > 100 µM | TGI (786-0 renal): > 100 µM | TGI (HT29 colon): > 100 µM | TGI (SF-268 CNS): > 100 µM | TGI (HCT-15 colon): > 100 µM | TGI (SR leukemia): 79.5 µM | TGI (NCI/ADR-RES ovarian): 88.1 µM | TGI (UACC-257 melanoma): 71.6 µM | TGI (HS 578T breast): > 100 µM | TGI (KM12 colon): > 100 µM | TGI (A498 renal): > 100 µM | TGI (SNB-75 CNS): > 100 µM | TGI (SK-MEL-28 melanoma): > 100 µM | TGI (EKVX NSCLC): 52.2 µM | TGI (HCC-2998 colon): 84.5 µM | TGI (NCI-H522 lung): 3.96 µM | TGI (PC-3 prostate): 77.4 µM | TGI (OVCAR-8 ovarian): > 100 µM | TGI (NCI-H23 lung): 48.5 µM | TGI (HOP-62 NSCLC): > 100 µM | TGI (SF-539 CNS): > 100 µM | TGI (SNB-19 CNS): > 100 µM | TGI (SN12C renal): > 100 µM | TGI (MOLT-4 leukemia): 60.1 µM | TGI (RXF 393 renal): > 100 µM | TGI (TK-10 renal): > 100 µM

CC(O)CCc1ccc(Oc2c3ccccc3nc3occc23)cc1 (stereo unspecified)
GI50 (MDA-MB-435): 3.86 µM | TGI (MDA-MB-435): 15.6 µM | GI50 (K-562 leukemia): 4.18 µM | TGI (K-562 leukemia): 31.6 µM | GI50 (RPMI-8226 leukemia): 4.91 µM | TGI (RPMI-8226 leukemia): > 100 µM | GI50 (OVCAR-4 ovarian): 5.08 µM | TGI (OVCAR-4 ovarian): 74 µM | GI50 (HCT-116 colon): 2.95 µM | TGI (HCT-116 colon): 15.6 µM | GI50 (NCI-H226 lung): 3.84 µM | TGI (NCI-H226 lung): 16.8 µM | GI50 (COLO 205 colon): 5.81 µM | TGI (COLO 205 colon): 24.1 µM | GI50 (M14 melanoma): 5.54 µM | TGI (M14 melanoma): 17.9 µM | GI50 (A549 NSCLC): 4.22 µM | TGI (A549 NSCLC): 17.6 µM | GI50 (UO-31 renal): 14.2 µM | TGI (UO-31 renal): > 100 µM | GI50 (CAKI-1 renal): 2.93 µM | TGI (CAKI-1 renal): 13.5 µM | GI50 (OVCAR-5 ovarian): 11.9 µM | TGI (OVCAR-5 ovarian): 24.3 µM | GI50 (U251 CNS): 18.1 µM | TGI (U251 CNS): 33.8 µM | GI50 (SF-295 CNS): 4.51 µM | TGI (SF-295 CNS): 17.1 µM | GI50 (DU-145 prostate): 16.6 µM | TGI (DU-145 prostate): 32.2 µM | GI50 (CCRF-CEM leukemia): 9.41 µM | TGI (CCRF-CEM leukemia): 34.8 µM | GI50 (MCF7 breast): 3.14 µM | TGI (MCF7 breast): 9.27 µM | GI50 (MDA-MB-231 breast): 16.6 µM | TGI (MDA-MB-231 breast): > 100 µM | GI50 (OVCAR-3 ovarian): 4.4 µM | TGI (OVCAR-3 ovarian): 26.7 µM | GI50 (HL-60(TB) leukemia): 1.78 µM | TGI (HL-60(TB) leukemia): 9.69 µM | GI50 (SK-OV-3 ovarian): 15.3 µM | TGI (SK-OV-3 ovarian): 31.8 µM | GI50 (NCI-H460 lung): 4.02 µM | TGI (NCI-H460 lung): 16.8 µM | GI50 (IGROV1 ovarian): 17.7 µM | TGI (IGROV1 ovarian): 56.9 µM | GI50 (786-0 renal): 9.8 µM | TGI (786-0 renal): 21.9 µM | GI50 (HT29 colon): 4.7 µM | TGI (HT29 colon): 18 µM | GI50 (SF-268 CNS): 11 µM | TGI (SF-268 CNS): 29.6 µM | GI50 (SR leukemia): 2.89 µM | TGI (SR leukemia): 9.28 µM | GI50 (NCI/ADR-RES ovarian): 2.7 µM | TGI (NCI/ADR-RES ovarian): 14.6 µM | GI50 (UACC-257 melanoma): 3.7 µM | TGI (UACC-257 melanoma): 14.4 µM | GI50 (HS 578T breast): 20.4 µM | TGI (HS 578T breast): 42.6 µM | GI50 (KM12 colon): 3.68 µM | TGI (KM12 colon): 19 µM | GI50 (SNB-75 CNS): 9.86 µM | TGI (SNB-75 CNS): 28.5 µM | GI50 (SK-MEL-28 melanoma): 12.3 µM | TGI (SK-MEL-28 melanoma): 25.1 µM | GI50 (NCI-H522 lung): 19.1 µM | TGI (NCI-H522 lung): > 100 µM | GI50 (PC-3 prostate): 5.39 µM | TGI (PC-3 prostate): 21.7 µM | GI50 (OVCAR-8 ovarian): 5.18 µM | TGI (OVCAR-8 ovarian): 19.6 µM | GI50 (NCI-H23 lung): 2.41 µM | TGI (NCI-H23 lung): 12 µM | GI50 (HOP-62 NSCLC): 17.8 µM | TGI (HOP-62 NSCLC): 31.9 µM | GI50 (SF-539 CNS): 13.9 µM | TGI (SF-539 CNS): 29.5 µM | GI50 (SNB-19 CNS): 13.5 µM | TGI (SNB-19 CNS): 33 µM | GI50 (SN12C renal): 10.9 µM | TGI (SN12C renal): 24.2 µM | GI50 (T-47D breast): 1.28 µM | TGI (T-47D breast): 10.9 µM | GI50 (RXF 393 renal): 3.2 µM | TGI (RXF 393 renal): 8.89 µM | GI50 (TK-10 renal): 1.22 µM | TGI (TK-10 renal): 7.75 µM
